Several values for one entry are separate records, joined by “and”; a condition that tells them apart may be missing. Equal values may be shown once. No end group written: not given here.
Legend:
[1] = system: GLP‐1R/GIPR heteromer; format: cell-based, human; conditions: 1 μM ligand; HEK‐293, fixed ratio of GLP‐1R‐Nluc and GIPR‐SYFP2; mean ± SEM, at least three independent experiments
[2] = molecular target: GLP‐1R‐Nluc (human) (UniProt P43220); experiment: FRET or BRET
[3] = molecular target: GIPR‐Nluc (human) (UniProt P48546); experiment: FRET or BRET
Chain of UniProt P48546 (P48546 22-466): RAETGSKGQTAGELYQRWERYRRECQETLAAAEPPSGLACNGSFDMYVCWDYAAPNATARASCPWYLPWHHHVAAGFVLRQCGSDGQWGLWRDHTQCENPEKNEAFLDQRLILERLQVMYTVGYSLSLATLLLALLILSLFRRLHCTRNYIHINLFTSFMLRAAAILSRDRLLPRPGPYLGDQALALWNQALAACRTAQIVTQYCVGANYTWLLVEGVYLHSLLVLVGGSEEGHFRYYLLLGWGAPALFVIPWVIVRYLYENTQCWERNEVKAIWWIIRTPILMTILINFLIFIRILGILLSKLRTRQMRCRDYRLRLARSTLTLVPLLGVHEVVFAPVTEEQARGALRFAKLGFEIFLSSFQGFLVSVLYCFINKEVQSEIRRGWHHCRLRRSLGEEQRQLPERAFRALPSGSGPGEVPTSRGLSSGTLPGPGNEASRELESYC

[4] = system: GIPR; conditions: cited from earlier work

Chain of UniProt P43220 (P43220 24-463): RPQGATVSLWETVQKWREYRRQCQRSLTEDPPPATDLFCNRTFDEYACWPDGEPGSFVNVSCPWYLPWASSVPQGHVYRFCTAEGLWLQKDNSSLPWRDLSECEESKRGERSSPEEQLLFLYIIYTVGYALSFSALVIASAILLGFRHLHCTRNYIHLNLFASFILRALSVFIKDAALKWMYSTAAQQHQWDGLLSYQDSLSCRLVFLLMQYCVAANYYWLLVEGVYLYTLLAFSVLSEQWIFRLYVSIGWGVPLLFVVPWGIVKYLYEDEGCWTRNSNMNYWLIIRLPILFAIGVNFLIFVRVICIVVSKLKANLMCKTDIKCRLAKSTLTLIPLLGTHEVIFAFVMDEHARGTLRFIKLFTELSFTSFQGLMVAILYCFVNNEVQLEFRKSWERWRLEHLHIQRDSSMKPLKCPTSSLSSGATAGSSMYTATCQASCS

Substance | Change in BRET ratio vs non‐stimulated cells [1] | pEC50 of the agonist GLP-1 for recruitment [2] | other results
GLP‐1 (9‐36): GLP‐1 metabolite, metabolic breakdown product of GLP‐1 (EGTFTSDVSSYLEGQAAKEFIAWLVKGR-NH2; UniProt P01275 100-127, looked up, fragment) | significantly increased the BRET ratio (p < .001) | – | –
Oxyntomodulin: posttranslational product of proglucagon and an endogenous dual GLP‐1R/glucagon receptor agonist (HSQGTFTSDYSKYLDSRRAQDFVQWLMNTKRNRNNIA; Oxyntomodulin; UniProt P01275 53-89, looked up) | no effect on BRET ratio | – | –
exendin‐4 (9–39) | no significant effect on BRET ratio | – | –
NES‐Venus‐mGαs | – | 7.8 -log EC50/M and 7.5 -log EC50/M and 7.7 -log EC50/M | –
NES‐Venus‐mGαq | – | 7.8 -log EC50/M and 7.7 -log EC50/M and 7.9 -log EC50/M | pEC50 of the agonist GIP for recruitment [3]: 8 -log EC50/M and 7.6 -log EC50/M and 7.8 -log EC50/M
(Pro3)GIP: previously reported to be a GIPR antagonist but subsequently shown to be a low potency GIPR agonist; custom synthesized (YAPGTFISDYSIAMDKIHQQDFVNWLLAQKGKKNDWKHNITQ; Gastric inhibitory polypeptide; UniProt P09681 52-93, looked up, variant E3P) | no effect on BRET ratio | – | Activity at GIPR [4]: low potency GIPR agonist

Reference: PMC9523454 (Pharmacology Research & Perspectives, 2022)
